Patent publication US20260041706A1, “MUCUS MEMBRANE FORMULATIONS AND USES THEREOF” (priority 2022, published 2026)
“And” between values parts separate entries of the source, which are not always exact repeats. Equal values may be shown once. Read-outs that look alike come from different tables or passages of the source.

What was measured:
[1] = system: human nasal epithelial cell (RPMI-2650)-based monolayer
[2] = system: HKx31 Influenza A virus (H3N2); experiment: In vitro neutralization assay with Influenza A (plaque assay in MDCK cells); type: cell-based; conditions: 10 or 60 min incubation; agent evaluated individually
SARS-CoV-2 mNG = experiment: In vitro neutralization assay with SARS-CoV-2 (focus-forming assay in Vero E6 cells); type: cell-based
[3] = system: Escherichia coli (E. coli); experiment: In vitro neutralization assay with bacteria (CFU), E. coli; type: cell-based; conditions: incubation time of 30 min
Protocol: (§1) Neutralization was determined by measuring the bactericidal activity. Each agent was individually incubated with either E. coli or K. pneumoniae for 30 or 60 min, followed by 1-minute centrifugation, and then evaluating the bacterial load in the supernatant using a colony-forming assay.
(§2) An overnight culture of bacteria was prepared in 5 mL tryptic soy broth (TSB, Sigma Aldrich) media. On the day of the experiment, bacteria suspension was adjusted to obtain an OD600 nm=0.2, which corresponds to 10^8 CFU/mL. […] After incubation, the sample/bacteria mixture was 10-fold serially diluted in 1×PBS, and 10 mL of each dilution was plated onto pre-poured LB (Luria Broth, HiMedia Laboratories Pvt Ltd) agar plates followed by an incubation of 16-18 h at 37° C., 5% CO2. The plates were then counted for CFUs.

Klebsiella pneumoniae = experiment: In vitro neutralization assay with bacteria (CFU), K. pneumoniae; type: cell-based; conditions: incubation time of 30 min
Protocol: as §1, §2

[4] = for fluorescence intensity (droplet capture) relative to mucus or biopolymer mixture without surfactant: surfactant 0.05% w/V in gellan (0.2% w/v) and pectin (0.75% w/v) mixture
[5] = mouse, in vivo
Description: (§3) To test our hypothesis, we compared nasal residence time of DiR-loaded mixture of gellan and pectin without or with surfactants.
(§4) In vivo biodistribution and nasal residence. Nasal residence time of the formulation was determine in mice. […] Mice were euthanized at different time points and nasal cavity was harvested and imaged using IVIS (Bruker's In-Vivo Xtreme optical and x-ray in vivo imaging system) at an excitation and emission wavelength of 680/700 nm. Vital organs such as lung, liver, spleen, kidney, and heart, were also imaged at 2 and 24 h time points. To determine the mechanism of long residence time, animals were intranasally instilled with DiR-mixed gellan (0.02% w/v) and pectin (0.75% w/v) mixture without or with BKC and tween-80. After 8 h, animals were euthanized to harvest and image the nasal cavity using Perkin Elmer IVIS Lumina II and the total flux was expressed in (p/sec/m^2/sr).

RPMI 2650 cells = conditions: 0.5% w/v; 24 or 48 h incubation
[6] = In vivo biodistribution and nasal residence (DiR fluorescence, IVIS); conditions: 8 h post-nasal administration, DiR-loaded
Description: as §3, §4

Substance | change in TEER (in words) ([1]; Triton-X 0.1% w/v, negative control) | reduction in IAV viral titer in host cells in comparison to PBS [2] [log fold] | minimum concentration required to achieve >4-log fold (>99.99%) reduction in SARS-CoV-2 viral load (SARS-CoV-2 mNG) [% w/v] | reduction in SARS-CoV-2 viral load in host cells (SARS-CoV-2 mNG; 10 or 60 min incubation, agent evaluated individually) | neutralization efficiency of BKC against SARS-CoV-2 in presence of gellan or pectin (SARS-CoV-2 mNG; BKC 0.01% w/v, gellan 0.2% w/v or pectin 0.75% w/v, 10 min) | reduction in colony-forming units (CFU) of E. coli [3] [log fold] | reduction in colony-forming units (CFU) of Klebsiella pneumoniae (Klebsiella pneumoniae) [log fold] | capture of respiratory droplets (in words) ([4]; BKC at 0.01% w/v) | fluorescence intensity (droplet capture) relative to mucus or biopolymer mixture without surfactant [4] [fold] | surfactant concentration above which fluorescence intensity (droplet capture) increased significantly ([4]; surfactant combined with gellan/pectin mixture, vs mucus or only biopolymer mixture) | nasal residence of gellan and pectin mixture on addition of surfactant [5] | transient dip in TEER immediately after addition ([1]; irrespective of the concentrations evaluated) | time for TEER to reverse to original value after replacing with fresh medium ([1]; medium replaced at 4 h) | metabolic activity of RPMI-2650 cells (RPMI 2650 cells) | nasal residence of gellan and pectin mixture on addition of surfactant [6]
Triton X-100 [Triton-X, reference compound] | permanent change in the TEER |  |  |  |  |  |  |  |  |  |  |  |  |  | 
benzalkonium chloride [BKC] |  | 1 | 0.01 | 5 log fold and > 99.99% | not impacted | 4 | 7 | didn't increase the capture of respiratory droplets | 4 | higher than 0.01 % w/v | significantly enhanced the nasal residence |  |  |  | 
polyoxyethylene 20 sorbitan monooleate [Tween-80] |  | 1 |  |  |  |  |  |  | 4 |  |  | less than 15% | less than 1 h | significant reduction in the metabolic activity | significantly enhanced the nasal residence
